Measurements: ChEMBL document CHEMBL1140856, “Substituted 1,2,3,4-tetrahydroquinolin-6-yloxypropanes as beta3-adrenergic receptor agonists: design, synthesis, biological evaluation and pharmacophore modeling” (Bioorg Med Chem, 2009)

Legend:
[1] = target: T1, Beta-3 adrenergic receptor (Homo sapiens, UniProt P13945); assay: Displacement of [125I]iodocyanopindolol from human adrenergic beta-3 receptor at 1 uM
Target sequence in this assay (P13945 whole entry, looked up): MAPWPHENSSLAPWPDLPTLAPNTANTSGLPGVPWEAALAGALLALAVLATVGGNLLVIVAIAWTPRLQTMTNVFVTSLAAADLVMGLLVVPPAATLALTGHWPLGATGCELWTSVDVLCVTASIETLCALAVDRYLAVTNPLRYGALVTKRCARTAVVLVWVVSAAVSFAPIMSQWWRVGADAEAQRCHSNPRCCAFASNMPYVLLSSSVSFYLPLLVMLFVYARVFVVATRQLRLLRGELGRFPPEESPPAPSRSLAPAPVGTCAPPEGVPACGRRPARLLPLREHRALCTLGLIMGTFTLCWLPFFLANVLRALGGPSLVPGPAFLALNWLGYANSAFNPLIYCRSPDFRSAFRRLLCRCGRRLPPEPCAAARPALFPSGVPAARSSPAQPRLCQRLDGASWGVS

[2] = target: T1, Beta-3 adrenergic receptor; assay: Displacement of [125I]iodocyanopindolol from human adrenergic beta-3 receptor at 10 uM
Target sequence in this assay (P13945 whole entry, looked up): as above

[3] = target: T1, Beta-3 adrenergic receptor; assay: Displacement of [125I]iodocyanopindolol from human adrenergic beta-3 receptor
Target sequence in this assay (P13945 whole entry): as the sequence (P13945 whole entry, looked up) above

[4] = target: Beta-1 adrenergic receptor (Homo sapiens, UniProt P08588); assay: Agonist activity at adrenergic beta-1 receptor; format: functional
Beta-1 adrenergic receptor, sequence (P08588 whole entry): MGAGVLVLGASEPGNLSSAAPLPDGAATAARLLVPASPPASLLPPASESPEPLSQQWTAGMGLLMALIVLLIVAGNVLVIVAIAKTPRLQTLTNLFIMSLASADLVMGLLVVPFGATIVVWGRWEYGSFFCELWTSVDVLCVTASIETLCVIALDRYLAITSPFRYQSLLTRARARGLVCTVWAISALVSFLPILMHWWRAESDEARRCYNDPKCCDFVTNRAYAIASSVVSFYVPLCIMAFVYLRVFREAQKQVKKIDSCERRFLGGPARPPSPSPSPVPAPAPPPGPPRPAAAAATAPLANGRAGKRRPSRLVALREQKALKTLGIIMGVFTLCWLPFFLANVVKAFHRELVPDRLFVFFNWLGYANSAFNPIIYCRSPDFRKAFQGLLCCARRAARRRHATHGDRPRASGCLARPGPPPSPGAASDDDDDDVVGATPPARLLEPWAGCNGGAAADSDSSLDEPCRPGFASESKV

[5] = Selectivity ratio of EC50 for adrenergic beta-1 receptor to EC50 for human adrenergic beta-3 receptor
[6] = target: Beta-2 adrenergic receptor (Homo sapiens, UniProt P07550); assay: Agonist activity at adrenergic beta-2 receptor; format: functional
Beta-2 adrenergic receptor, sequence (P07550 whole entry): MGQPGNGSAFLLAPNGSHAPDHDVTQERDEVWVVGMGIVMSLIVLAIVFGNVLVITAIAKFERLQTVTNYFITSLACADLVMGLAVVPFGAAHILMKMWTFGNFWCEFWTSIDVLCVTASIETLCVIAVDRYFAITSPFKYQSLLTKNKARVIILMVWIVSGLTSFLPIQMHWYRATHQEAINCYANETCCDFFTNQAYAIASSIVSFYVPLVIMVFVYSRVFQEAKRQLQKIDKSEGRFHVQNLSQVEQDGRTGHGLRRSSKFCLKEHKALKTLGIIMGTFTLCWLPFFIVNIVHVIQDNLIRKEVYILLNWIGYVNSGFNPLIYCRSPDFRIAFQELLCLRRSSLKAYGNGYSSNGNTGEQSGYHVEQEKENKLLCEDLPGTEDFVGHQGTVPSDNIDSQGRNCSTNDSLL

[7] = Selectivity ratio of EC50 for adrenergic beta-2 receptor to EC50 for human adrenergic beta3 receptor
[8] = target: T1, Beta-3 adrenergic receptor; assay: Agonist activity at adrenergic beta-3 receptor in human SK-N-MC cells; format: functional, cell-based
Target sequence in this assay (P13945 whole entry): as the sequence (P13945 whole entry, looked up) above

| SMILES | inhibition [1] [%] | inhibition [2] [%] | other results |
| --- | --- | --- | --- |
| COc1ccc(N2CCN(CCCOc3ccc4c(c3)CCCN4Cc3ccccc3)CC2)cc1 | 6.72 | 1.95 | – |
| OC(COc1ccc2c(c1)CCCN2Cc1ccccc1)CN1CCN(c2ccccc2)CC1 (stereo not drawn) | 45.9 | 52.2 | – |
| Cc1ccc(N2CCN(CC(O)COc3ccc4c(c3)CCCN4Cc3ccccc3)C(C)C2)cc1 (stereo not drawn) | 3.19 | 11.8 | – |
| OC(COc1ccc2c(c1)CCCN2Cc1ccccc1)CN1CCCCC1 (stereo not drawn) | 4.27 | 31.4 | – |
| CN1CCN(CC(O)COc2ccc3c(c2)CCCN3Cc2ccccc2)CC1 (stereo not drawn) | -3.71 | 0.18 | – |
| CC1CN(c2ccc(Cl)cc2)CCN1CC(O)COc1ccc2c(c1)CCCN2Cc1ccccc1 (stereo not drawn) | 3.61 | 0.08 | – |
| CCN(CC)CC(O)COc1ccc2c(c1)CCCN2Cc1ccccc1 (stereo not drawn) | 9.18 | 11.2 | – |
| COc1ccc(CCN(CC(O)COc2ccc3c(c2)CCCN3Cc2ccccc2)C(=O)OC(C)(C)C)cc1OC (stereo not drawn) | 37.8 | 46.7 | – |
| OC(COc1ccc2c(c1)CCCN2Cc1ccccc1)CN1CCN(c2ccc(Cl)c(Cl)c2)CC1 (stereo not drawn) | -7.18 | 0.28 | – |
| COc1ccc(N2CCN(CC(O)COc3ccc4c(c3)CCCN4Cc3ccccc3)CC2)cc1 (stereo not drawn) | 45.1 | 49.8 | – |
| COc1ccc(CCNCC(O)COc2ccc3c(c2)CCCN3Cc2ccccc2)cc1OC (stereo not drawn) | 72.8 | 90.6 | IC50 [3]: 550 nM |
| OC(COc1ccc2c(c1)CCCN2Cc1ccccc1)CN1CCN(c2ccc(F)cc2)CC1 (stereo not drawn) | 49.7 | 68.8 | IC50 [3]: 1760 nM |
| COc1ccc(CCNCC(O)COc2ccc3c(c2)CCCN3S(=O)(=O)c2ccccc2)cc1OC (stereo not drawn) | 26.5 | 38.9 | – |
| COc1ccccc1N1CCN(CC(O)COc2ccc3c(c2)CCCN3Cc2ccccc2)CC1 (stereo not drawn) | 12.2 | 14.5 | – |
| OC(CNCCc1ccc(Cl)cc1)COc1ccc2c(c1)CCCN2Cc1ccccc1 (stereo not drawn) | 55.8 | 63.1 | – |
| CCCNCC(O)COc1ccc2c(c1)CCCN2Cc1ccccc1 (stereo not drawn) | 19.2 | 66.3 | – |
| OC(CNCc1ccccc1)COc1ccc2c(c1)CCCN2Cc1ccccc1 (stereo not drawn) | 1.81 | 19 | – |
| OC(COc1ccc2c(c1)CCCN2Cc1ccccc1)CN1CCC(Cc2ccccc2)CC1 (stereo not drawn) | -2.05 | 23.5 | – |
| Clc1ccc(CCNCCCOc2ccc3c(c2)CCCN3Cc2ccccc2)cc1 | 42.9 | 58.7 | – |
| CCOC(=O)COc1ccc(CC(C)N2CCOC(c3ccccc3)C2)cc1 (stereo not drawn) | – | -1.36 | – |

| SMILES | inhibition [1] [%] | inhibition [2] [%] | other results |
| --- | --- | --- | --- |
| OC(COc1ccc2c(c1)CCCN2Cc1ccccc1)CN1CCC(O)(c2ccccc2)CC1 (stereo not drawn) | 46.4 | 50.5 | – |
| O=[N+]([O-])c1ccc(N2CCN(CC(O)COc3ccc4c(c3)CCCN4Cc3ccccc3)CC2)cc1 (stereo not drawn) | 6.08 | 4.13 | – |
| COc1ccc(CCNCC(O)COc2ccc3c(c2)CCCN3Cc2ccccc2)cc1 (stereo not drawn) | 56.2 | 76.5 | EC50 [4]: 7.28 µM; IC50 [3]: 1180 nM; Ratio EC50 [5]: 1.47; EC50 [6]: 5.9 µM; Ratio EC50 [7]: 1.2; EC50 [8]: 4880 nM |
| Cc1ccc(CCNCC(O)COc2ccc3c(c2)CCCN3Cc2ccccc2)cc1 (stereo not drawn) | 8.17 | 18.1 | – |
| CC(Cc1ccc(OCC(=O)O)cc1)N1CCOC(c2ccccc2)C1 (stereo not drawn) | -9.63 | 9.42 | – |
| COc1ccc(CNCC(O)COc2ccc3c(c2)CCCN3Cc2ccccc2)cc1 (stereo not drawn) | 9.26 | 27.4 | – |
| CC(Cc1ccc(O)cc1)N1CCOC(c2ccccc2)C1 (stereo not drawn) | 0.34 | 0.24 | – |
| CC1CCN(CC(O)COc2ccc3c(c2)CCCN3Cc2ccccc2)CC1 (stereo not drawn) | -1.79 | 12.8 | – |
| CCCNCCCOc1ccc2c(c1)CCCN2Cc1ccccc1 | 5.62 | 16.2 | – |
| CC(NCC(O)COc1ccc2c(c1)CCCN2Cc1ccccc1)c1ccccc1 (stereo not drawn) | 7.71 | 27.5 | – |
| OC(COc1ccc2c(c1)CCCN2Cc1ccccc1)CN1CCN(c2cccc(Cl)c2)CC1 (stereo not drawn) | -2.34 | 11.3 | – |
| OC(COc1ccc2c(c1)CCCN2Cc1ccccc1)CN1CCN(Cc2ccc3c(c2)OCO3)CC1 (stereo not drawn) | -5.28 | 18.1 | – |
| CC(C)NCC(O)COc1ccc2c(c1)CCCN2Cc1ccccc1 (stereo not drawn) | 59.7 | 83.2 | EC50 [4]: 2.03 µM; IC50 [3]: 590 nM; Ratio EC50 [5]: 2.3; EC50 [6]: 1.16 µM; Ratio EC50 [7]: 1.31; EC50 [8]: 883 nM |
| COc1ccc(CCNCC(O)COc2ccc3c(c2)CCCN3)cc1OC (stereo not drawn) | 33.1 | 56.5 | – |
| CN(Cc1ccccc1)CC(O)COc1ccc2c(c1)CCCN2Cc1ccccc1 (stereo not drawn) | -4.54 | 2.54 | – |
| OC(COc1ccc2c(c1)CCCN2Cc1ccccc1)CN1CCN(c2ccccc2F)CC1 (stereo not drawn) | 5.5 | 20.4 | – |
| COc1ccc(CCN(CC(O)COc2ccc3c(c2)CCCN3)C(=O)OC(C)(C)C)cc1OC (stereo not drawn) | 23.2 | 28.1 | – |
| CCCCN(CCCC)CC(O)COc1ccc2c(c1)CCCN2Cc1ccccc1 (stereo not drawn) | 4.09 | 14.7 | – |
| OC(COc1ccc2c(c1)CCCN2Cc1ccccc1)CN1CCN(Cc2ccccc2)CC1 (stereo not drawn) | -0.84 | 17.1 | – |
| OC(COc1ccc2c(c1)CCCN2Cc1ccccc1)CN1CCN(c2ccccn2)CC1 (stereo not drawn) | 5.32 | 12.7 | – |
